# ChEMBL document CHEMBL5096164, “In Vivo Profiling of a Natural Alkaloid, Anatabine, in Rodents: Pharmacokinetics and Anti-Inflammatory Efficacy” (J Nat Prod, 2021)
# The source made the active and inactive calls. No cut-off for these calls is given here.
# Legend:
# Mus musculus [1] = assay: Antiinflammatory activity LPS induced mouse model assessed as reduction in macrophage inflammatory protein-1alpha at 1 to 5 mg/kg, ip preincubated for 1 hr followed by LPS stimulation and measured after 2 hrs by luminex xMAP bead based assay; assay type: functional, organism-based; conditions: dose 1-5 mg/kg, time 3.0 hrs
# [2] = Drug uptake in MOG (35 to 55 residues)-induced experimental autoimmune encephalomyelitis immunized mouse in plasma at 50 microg/L by LC-MS/MS analysis; assay type: ADME; conditions: dose 50 µg/L
# [3] = Clearance in Wistar rat plasma at 5 mg/kg, ip administered as bolus dose measured after 5 to 360 mins by LC-MS/MS analysis; assay type: ADME, organism-based; conditions: time 5-360 min
# [4] = AUC in Wistar rat plasma at 2 mg/kg, iv administered as bolus dose measured after 5 to 360 mins by LC-MS/MS analysis; assay type: ADME, organism-based; parameters: time lower 5 min, dose 2 mg/kg, time upper 360 min, route iv
# [5] = AUC in C57BL/6 brain at 2 mg/kg, ip measured after 3 to 240 mins by LC-MS/MS analysis; assay type: ADME, organism-based; parameters: time 3-240 min, dose 2 mg/kg, route ip; conditions: C57BL/6, mouse
# [6] = AUC in rat at 0.40 mg/kg via inhalation; assay type: ADME, organism-based; parameters: dose 0.4 mg/kg, route inh; conditions: in vivo, inhaled or intranasal, 0.4 mg/kg
# [7] = Cmax in C57BL/6 brain at 2 mg/kg, ip measured after 3 to 240 mins by LC-MS/MS analysis; assay type: ADME, organism-based; parameters: time upper 240 min, time lower 3 min, dose 2 mg/kg, route ip; conditions: C57BL/6, mouse
# [8] = Drug uptake in MOG (35 to 55 residues)-induced experimental autoimmune encephalomyelitis mouse aerosol at 50 microg/L by LC-MS/MS analysis; assay type: ADME; conditions: in vivo, inhaled_or_intranasal, dose 50 µg/L
# [9] = Cmax in rat at 2.73 mg/kg via inhalation; assay type: ADME, organism-based; parameters: dose 2.73 mg/kg, route inh; conditions: in vivo, inhaled or intranasal
# [10] = Clearance in Wistar rat plasma at 2 mg/kg, iv administered as bolus dose measured after 5 to 360 mins by LC-MS/MS analysis; assay type: ADME, organism-based; conditions: time 5-360 min
# [11] = Half life in C57BL/6 mouse plasma at 2 mg/kg, ip measured after 3 to 240 mins by LC-MS/MS analysis; assay type: ADME, organism-based; conditions: time 3-240 min
# Mus musculus [12] = assay: Antiinflammatory activity in ip induced Wistar mouse model of carrageenan-induced paw edema assessed as reduction in paw thickness administered 10 mins prior to carrageenan induction and measured upto 5 hrs; assay type: functional, organism-based; conditions: dose 1-5 mg/kg, time 310.0 min, DDE = dose-dependent effect
# [13] = Half life in Wistar rat plasma at 5 mg/kg, ip administered as bolus dose measured after 5 to 360 mins by LC-MS/MS analysis; assay type: ADME, organism-based; conditions: time 5-360 min
# [14] = Drug uptake in rat aerosol at 2.5 microg/L via inhalation measured for 30 mins; assay type: ADME; conditions: in vivo, inhaled_or_intranasal, 0.5 h, route inh, dose 2.5 µg/L
# [15] = AUC in rat at 2.73 mg/kg via inhalation; assay type: ADME, organism-based; parameters: dose 2.73 mg/kg, route inh; conditions: in vivo, inhaled or intranasal
# Mus musculus [16] = assay: Antiinflammatory activity LPS induced mouse model assessed as reduction in granulocyte-macrophage colony stimulating factor at 1 to 5 mg/kg, ip preincubated for 1 hr followed by LPS stimulation and measured after 2 hrs by luminex xMAP bead based assay; assay type: functional, organism-based; conditions: dose 1-5 mg/kg, time 3.0 hrs
# [17] = Drug uptake in MOG (35 to 55 residues)-induced experimental autoimmune encephalomyelitis unimmunized mouse in plasma at 50 microg/L by LC-MS/MS analysis; assay type: ADME; conditions: dose 50 µg/L
# [18] = Bioavailability in Wistar rat plasma at 2 mg/kg, iv administered as bolus dose measured after 5 to 360 mins by LC-MS/MS analysis; assay type: ADME, organism-based; conditions: time 5-360 min
# Mus musculus [19] = assay: Antiinflammatory activity ip/LPS induced mouse model assessed as reduction in IL-6 level in plasma preincubated for 1 hr followed by LPS stimulation and measured after 2 hrs by ELISA method; assay type: functional, organism-based; conditions: dose 1-5 mg/kg, time 3.0 hrs, DDE = dose-dependent effect
# [20] = Tmax in C57BL/6 plasma at 2 mg/kg, ip measured after 3 to 240 mins by LC-MS/MS analysis; assay type: ADME, organism-based; conditions: C57BL/6, mouse, time 3-240 min
# [21] = Half life in rat at 2.73 mg/kg via inhalation; assay type: ADME, organism-based; conditions: in vivo, inhaled or intranasal, route inh
# Mus musculus [22] = assay: Antiinflammatory activity ip /LPS induced mouse model assessed as upregulation of IL-10 level preincubated for 1 hr followed by LPS stimulation and measured after 2 hrs by luminex xMAP bead based assay; assay type: functional, organism-based; conditions: dose 1-5 mg/kg, time 3.0 hrs, DDE = dose-dependent effect
# [23] = Bioavailability in rat at 2.73 mg/kg via inhalation; assay type: ADME, organism-based; conditions: in vivo, inhaled or intranasal, route inh
# [24] = AUC in Wistar rat plasma at 5 mg/kg, ip administered as bolus dose measured after 5 to 360 mins by LC-MS/MS analysis; assay type: ADME, organism-based; parameters: dose 5 mg/kg, time upper 360 min, time lower 5 min, route ip
# [25] = Antiinflammatory activity in MOG (35 to 55 residues)-induced experimental autoimmune encephalomyelitis mouse aerosol assessed as reduction in clinical score at 25 microg/L measured on 16 day (reference value: 2.0); assay type: ADME; conditions: inhaled_or_intranasal, 384 h, dose 25 µg/L
# [26] = Drug uptake in MOG (35 to 55 residues)-induced experimental autoimmune encephalomyelitis unimmunized mouse plasma at 25 microg/L by LC-MS/MS analysis; assay type: ADME; conditions: dose 25 µg/L
# [27] = Tmax in Wistar rat plasma at 5 mg/kg, ip administered as bolus dose measured after 5 to 360 mins by LC-MS/MS analysis; assay type: ADME, organism-based; conditions: time 5-360 min
# Mus musculus [28] = assay: Antiinflammatory activity LPS induced mouse model assessed as reduction in interferon gamma induced protein 10 at 1 to 5 mg/kg, ip preincubated for 1 hr followed by LPS stimulation and measured after 2 hrs by luminex xMAP bead based assay; assay type: functional, organism-based; conditions: dose 1-5 mg/kg, time 3.0 hrs
# [29] = Tmax in Wistar rat plasma at 2 mg/kg, iv administered as bolus dose measured after 5 to 360 mins by LC-MS/MS analysis; assay type: ADME, organism-based; conditions: time 5-360 min
# [30] = Volume of distribution at steady state in Wistar rat plasma at 1 mg/kg, iv administered as bolus dose measured after 5 to 360 mins by LC-MS/MS analysis; assay type: ADME, organism-based; conditions: time 5-360 min, read-out: Vdss
# [31] = Drug uptake in rat aerosol at medium dose via inhalation measured for 30 mins; assay type: ADME; conditions: in vivo, inhaled_or_intranasal, 0.5 h, route inh
# [32] = Half life in C57BL/6 mouse brain at 2 mg/kg, ip measured after 3 to 240 mins by LC-MS/MS analysis; assay type: ADME, organism-based; conditions: time 3-240 min
# [33] = Drug uptake in rat aerosol at 261.4 microg/L via inhalation measured for 30 mins; assay type: ADME; conditions: in vivo, inhaled_or_intranasal, 0.5 h, dose 261.4 µg/L
# [34] = Cmax in rat at 0.06 mg/kg via inhalation; assay type: ADME, organism-based; parameters: dose 0.06 mg/kg, route inh; conditions: in vivo, inhaled or intranasal
# [35] = Clearance in C57BL/6 mouse plasma at 2 mg/kg, ip measured after 3 to 240 mins by LC-MS/MS analysis; assay type: ADME, organism-based; conditions: time 3-240 min
smiles,measurement,setting,value
C1=CCC(c2cccnc2)NC1 (stereo not given),Activity,Mus musculus [1],Active
same,Cp,[2],1139.7 ng/mL
same,CL/F,[3],8.11 mL/min/kg
same,AUC,[4],2730 ng·h/mL
same,AUC,[5],1490 ng·h/mL
same,AUC,[6],637 ng·h/mL
same,Cmax,[7],3380 ng/mL
same,Drug uptake,[8],50.6 ng/mL
same,Cmax,[9],780 ng/mL
same,clearance,[10],8.11 mL/min/kg
same,half-life,[11],12.6 min
same,Activity,Mus musculus [12],Dde
same,half-life,[13],83.4 min
same,Drug uptake,[14],2.5 µg/L
same,AUC,[15],3060 ng·h/mL
same,Activity,Mus musculus [16],Active
same,Cp,[17],1202.5 ng/mL
same,bioavailability,[18],68.6%
same,Activity,Mus musculus [19],Dde
same,Tmax,[20],1.8 min
same,half-life,[21],218 min
same,Activity,Mus musculus [22],Dde
same,bioavailability,[23],56.4%
same,AUC,[24],6820 ng·h/mL
same,Activity,[25],1.1
same,Cp,[26],531.5 ng/mL
same,Tmax,[27],9.6 min
same,Activity,Mus musculus [28],Active
same,Tmax,[29],9.6 min
same,Vd,[30],1.23 L/kg
same,Drug uptake,[31],25 µg/L
same,half-life,[32],21.6 min
same,Drug uptake,[33],250 µg/L
same,Cmax,[34],20 ng/mL
same,CL/F,[35],78.6 mL/min/kg
